Each block holds one compound with its values, some of them ahead of it.
Tests used:
[1] = molecular target: Rho-associated protein kinase 2 (Homo sapiens, UniProt O75116); assay: Selectivity interaction (Enzymatic assay) EUB0001199aCl ROCK2
[2] = molecular target: Serine/threonine-protein kinase MARK2 (Homo sapiens) (UniProt Q7KZI7); assay: Selectivity interaction (KinomeScan (DiscoverX)) EUB0000607a MARK2; conditions: at 10 µM
[3] = molecular target: Platelet-derived growth factor receptor beta (Homo sapiens, UniProt P09619); assay: Selectivity interaction (SelectScreen profiling (Invitrogen)) EUB0000607a PDGFRB; conditions: at 2 µM
Platelet-derived growth factor receptor beta, sequence (P09619 whole entry): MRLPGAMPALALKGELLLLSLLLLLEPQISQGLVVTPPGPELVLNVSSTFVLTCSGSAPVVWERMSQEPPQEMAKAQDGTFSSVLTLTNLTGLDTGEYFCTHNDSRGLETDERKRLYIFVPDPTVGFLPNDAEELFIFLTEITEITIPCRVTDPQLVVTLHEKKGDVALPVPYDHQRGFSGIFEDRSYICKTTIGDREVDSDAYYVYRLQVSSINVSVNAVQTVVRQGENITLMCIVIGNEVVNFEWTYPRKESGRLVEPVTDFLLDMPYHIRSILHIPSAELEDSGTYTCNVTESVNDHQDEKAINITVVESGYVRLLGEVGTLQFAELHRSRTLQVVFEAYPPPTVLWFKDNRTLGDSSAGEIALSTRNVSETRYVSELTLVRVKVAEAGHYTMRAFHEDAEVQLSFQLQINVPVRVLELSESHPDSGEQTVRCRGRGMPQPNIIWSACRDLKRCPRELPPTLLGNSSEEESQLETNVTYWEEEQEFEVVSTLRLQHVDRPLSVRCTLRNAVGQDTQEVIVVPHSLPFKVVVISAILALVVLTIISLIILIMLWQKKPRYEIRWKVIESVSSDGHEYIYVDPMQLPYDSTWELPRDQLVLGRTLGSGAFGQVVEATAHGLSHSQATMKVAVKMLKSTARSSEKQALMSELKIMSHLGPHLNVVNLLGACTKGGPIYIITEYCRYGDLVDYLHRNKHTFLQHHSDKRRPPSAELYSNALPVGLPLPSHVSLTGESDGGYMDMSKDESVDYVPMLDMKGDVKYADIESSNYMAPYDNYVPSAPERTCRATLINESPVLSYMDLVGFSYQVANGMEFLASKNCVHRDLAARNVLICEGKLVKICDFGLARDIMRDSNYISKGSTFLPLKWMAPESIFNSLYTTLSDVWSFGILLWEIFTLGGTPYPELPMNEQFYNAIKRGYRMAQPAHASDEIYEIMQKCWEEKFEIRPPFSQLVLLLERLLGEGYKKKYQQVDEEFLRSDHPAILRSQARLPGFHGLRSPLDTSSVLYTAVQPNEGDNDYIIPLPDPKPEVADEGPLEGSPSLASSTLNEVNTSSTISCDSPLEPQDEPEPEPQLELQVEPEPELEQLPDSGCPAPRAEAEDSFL

[4] = molecular target: SRSF protein kinase 2 (Homo sapiens) (UniProt P78362); conditions: at 10 µM
SRSF protein kinase 2 (Homo sapiens), sequence (P78362 whole entry, looked up, the tested form may be a part): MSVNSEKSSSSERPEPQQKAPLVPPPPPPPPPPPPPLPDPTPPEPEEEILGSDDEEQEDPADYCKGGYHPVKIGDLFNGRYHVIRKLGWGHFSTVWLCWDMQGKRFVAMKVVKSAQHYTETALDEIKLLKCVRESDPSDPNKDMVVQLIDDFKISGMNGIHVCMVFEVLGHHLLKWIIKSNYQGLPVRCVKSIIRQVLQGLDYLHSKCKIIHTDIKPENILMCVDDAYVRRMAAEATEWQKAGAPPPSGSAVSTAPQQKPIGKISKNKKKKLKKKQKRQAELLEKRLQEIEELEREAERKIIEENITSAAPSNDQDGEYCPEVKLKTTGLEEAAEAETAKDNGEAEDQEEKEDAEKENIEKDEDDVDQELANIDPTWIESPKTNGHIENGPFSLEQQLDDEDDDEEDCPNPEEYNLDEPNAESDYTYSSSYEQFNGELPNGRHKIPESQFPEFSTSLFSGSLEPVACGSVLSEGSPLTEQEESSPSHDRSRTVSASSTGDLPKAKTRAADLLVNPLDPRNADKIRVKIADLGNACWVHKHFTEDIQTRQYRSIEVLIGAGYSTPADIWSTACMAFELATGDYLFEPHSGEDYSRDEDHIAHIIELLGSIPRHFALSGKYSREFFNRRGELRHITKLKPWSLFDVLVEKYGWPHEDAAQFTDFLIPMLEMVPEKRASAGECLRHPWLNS

[5] = molecular target: Epithelial discoidin domain-containing receptor 1 (Homo sapiens) (UniProt Q08345); assay: Selectivity interaction (Kinase panel (Invitrogen)) EUB0000639a DDR1; conditions: at 200 nM
[6] = molecular target: Protein kinase C eta type (Homo sapiens) (UniProt P24723); assay: Selectivity interaction (Kinase panel (Invitrogen)) EUB0000639a PRKCH; conditions: at 200 nM
Protein kinase C eta type (Homo sapiens), sequence (P24723 whole entry): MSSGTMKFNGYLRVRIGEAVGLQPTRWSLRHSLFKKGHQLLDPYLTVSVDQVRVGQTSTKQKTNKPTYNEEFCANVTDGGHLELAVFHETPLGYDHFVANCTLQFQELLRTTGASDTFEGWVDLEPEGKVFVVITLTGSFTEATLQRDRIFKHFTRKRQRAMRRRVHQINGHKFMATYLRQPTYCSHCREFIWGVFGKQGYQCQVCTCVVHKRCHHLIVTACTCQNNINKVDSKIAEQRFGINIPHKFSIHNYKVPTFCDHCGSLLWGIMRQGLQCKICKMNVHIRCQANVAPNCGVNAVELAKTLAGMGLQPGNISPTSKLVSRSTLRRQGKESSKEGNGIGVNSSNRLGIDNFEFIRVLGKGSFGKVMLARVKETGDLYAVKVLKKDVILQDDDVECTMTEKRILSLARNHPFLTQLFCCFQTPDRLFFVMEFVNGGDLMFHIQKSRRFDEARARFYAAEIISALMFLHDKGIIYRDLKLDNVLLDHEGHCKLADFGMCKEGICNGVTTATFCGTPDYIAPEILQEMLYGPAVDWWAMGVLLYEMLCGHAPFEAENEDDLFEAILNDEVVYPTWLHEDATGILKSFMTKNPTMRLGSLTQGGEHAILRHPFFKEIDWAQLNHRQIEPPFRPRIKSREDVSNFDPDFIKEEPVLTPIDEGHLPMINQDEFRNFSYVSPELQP

[7] = molecular target: Serine/threonine-protein kinase pim-2 (Homo sapiens, UniProt Q9P1W9); assay: Selectivity interaction (KinomeScan (DiscoverX)) EUB0000695a PIM2; conditions: at 100 nM
Serine/threonine-protein kinase pim-2, sequence (Q9P1W9 whole entry, looked up): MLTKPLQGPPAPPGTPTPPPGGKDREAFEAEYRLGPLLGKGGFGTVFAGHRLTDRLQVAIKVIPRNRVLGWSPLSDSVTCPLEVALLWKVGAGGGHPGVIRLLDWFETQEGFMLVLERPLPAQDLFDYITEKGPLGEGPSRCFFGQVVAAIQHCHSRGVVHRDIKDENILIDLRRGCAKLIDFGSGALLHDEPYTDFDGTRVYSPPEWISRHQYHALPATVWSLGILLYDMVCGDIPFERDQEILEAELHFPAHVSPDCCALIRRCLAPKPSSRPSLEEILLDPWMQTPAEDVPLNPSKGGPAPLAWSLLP

[8] = molecular target: Tyrosine-protein kinase ABL1 (Homo sapiens, UniProt P00519); assay: Selectivity interaction (KinaseProfiler screening (Millipore)) EUB0000601a ABL1; conditions: at 3 µM
Tyrosine-protein kinase ABL1, sequence (P00519 whole entry): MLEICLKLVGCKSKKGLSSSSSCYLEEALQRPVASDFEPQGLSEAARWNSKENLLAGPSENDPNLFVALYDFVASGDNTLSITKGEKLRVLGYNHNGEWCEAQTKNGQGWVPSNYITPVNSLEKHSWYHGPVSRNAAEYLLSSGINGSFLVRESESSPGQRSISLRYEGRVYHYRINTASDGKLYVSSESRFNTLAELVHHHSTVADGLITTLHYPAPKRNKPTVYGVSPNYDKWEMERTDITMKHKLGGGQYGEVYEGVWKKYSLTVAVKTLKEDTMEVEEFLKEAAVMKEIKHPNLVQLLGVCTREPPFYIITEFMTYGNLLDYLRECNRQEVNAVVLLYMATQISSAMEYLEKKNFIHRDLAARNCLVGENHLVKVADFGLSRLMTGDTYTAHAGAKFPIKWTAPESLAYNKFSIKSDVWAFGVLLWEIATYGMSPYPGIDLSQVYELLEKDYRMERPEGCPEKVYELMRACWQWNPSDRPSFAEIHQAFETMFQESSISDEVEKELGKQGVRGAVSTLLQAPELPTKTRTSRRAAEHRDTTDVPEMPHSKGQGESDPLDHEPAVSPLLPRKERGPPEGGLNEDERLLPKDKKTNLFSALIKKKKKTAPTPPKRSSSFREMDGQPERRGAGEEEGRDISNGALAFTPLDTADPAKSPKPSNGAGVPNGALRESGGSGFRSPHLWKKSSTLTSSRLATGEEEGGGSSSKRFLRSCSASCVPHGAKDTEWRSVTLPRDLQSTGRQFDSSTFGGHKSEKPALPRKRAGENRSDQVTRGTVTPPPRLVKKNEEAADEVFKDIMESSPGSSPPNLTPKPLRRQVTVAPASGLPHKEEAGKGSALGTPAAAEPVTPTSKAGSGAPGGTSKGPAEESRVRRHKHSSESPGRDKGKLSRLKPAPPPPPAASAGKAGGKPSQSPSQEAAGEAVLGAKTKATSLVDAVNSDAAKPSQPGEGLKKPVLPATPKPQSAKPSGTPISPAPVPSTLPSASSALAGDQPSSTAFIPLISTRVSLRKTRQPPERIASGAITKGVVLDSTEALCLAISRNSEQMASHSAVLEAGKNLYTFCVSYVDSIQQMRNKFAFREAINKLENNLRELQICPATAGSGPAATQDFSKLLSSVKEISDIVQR

[9] = molecular target: Activin receptor type-2B (Homo sapiens) (UniProt Q13705); conditions: at 10 µM
Activin receptor type-2B (Homo sapiens), sequence (Q13705 whole entry): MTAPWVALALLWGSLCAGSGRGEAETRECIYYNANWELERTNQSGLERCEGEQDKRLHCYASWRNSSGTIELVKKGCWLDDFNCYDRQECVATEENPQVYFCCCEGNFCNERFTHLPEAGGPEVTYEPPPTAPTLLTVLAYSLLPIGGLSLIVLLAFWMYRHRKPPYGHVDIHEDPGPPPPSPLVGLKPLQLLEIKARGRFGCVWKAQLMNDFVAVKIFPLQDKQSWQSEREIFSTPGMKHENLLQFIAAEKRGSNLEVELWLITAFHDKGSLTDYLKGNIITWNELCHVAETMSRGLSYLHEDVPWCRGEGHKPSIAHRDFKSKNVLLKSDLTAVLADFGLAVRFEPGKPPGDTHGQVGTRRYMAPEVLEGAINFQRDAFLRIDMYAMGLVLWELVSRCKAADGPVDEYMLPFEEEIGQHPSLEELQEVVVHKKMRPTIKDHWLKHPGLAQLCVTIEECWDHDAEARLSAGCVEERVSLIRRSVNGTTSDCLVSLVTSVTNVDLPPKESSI

[10] = molecular target: cAMP-dependent protein kinase catalytic subunit alpha (Homo sapiens, UniProt P17612); assay: Selectivity interaction (KinomeScan (DiscoverX)) EUB0000655a PRKACA; conditions: at 10 µM
[11] = molecular target: MAP kinase-activated protein kinase 2 (Homo sapiens, UniProt P49137); assay: Selectivity interaction (KinomeScan (DiscoverX)) EUB0001079a MAPKAPK2; conditions: at 1 µM
MAP kinase-activated protein kinase 2, sequence (P49137 whole entry, looked up): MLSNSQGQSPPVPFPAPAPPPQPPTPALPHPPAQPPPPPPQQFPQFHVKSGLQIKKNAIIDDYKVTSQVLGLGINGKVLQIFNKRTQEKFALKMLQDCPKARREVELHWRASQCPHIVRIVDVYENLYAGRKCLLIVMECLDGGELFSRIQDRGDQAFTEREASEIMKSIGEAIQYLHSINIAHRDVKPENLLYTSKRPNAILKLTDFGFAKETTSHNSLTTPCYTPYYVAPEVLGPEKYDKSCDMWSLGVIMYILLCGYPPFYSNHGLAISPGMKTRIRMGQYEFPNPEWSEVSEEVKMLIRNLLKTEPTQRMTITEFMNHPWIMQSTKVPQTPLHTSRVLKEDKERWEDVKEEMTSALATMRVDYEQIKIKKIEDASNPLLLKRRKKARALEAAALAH

[12] = molecular target: T1, Serine/threonine-protein kinase greatwall (Homo sapiens) (UniProt Q96GX5); assay: Selectivity interaction (Kinase panel (KiNativ target engagement assay in Jurkat cells)) EUB0001635a MASTL; assay type: cell-based; conditions: at 1 µM
T1 sequence (whole entry): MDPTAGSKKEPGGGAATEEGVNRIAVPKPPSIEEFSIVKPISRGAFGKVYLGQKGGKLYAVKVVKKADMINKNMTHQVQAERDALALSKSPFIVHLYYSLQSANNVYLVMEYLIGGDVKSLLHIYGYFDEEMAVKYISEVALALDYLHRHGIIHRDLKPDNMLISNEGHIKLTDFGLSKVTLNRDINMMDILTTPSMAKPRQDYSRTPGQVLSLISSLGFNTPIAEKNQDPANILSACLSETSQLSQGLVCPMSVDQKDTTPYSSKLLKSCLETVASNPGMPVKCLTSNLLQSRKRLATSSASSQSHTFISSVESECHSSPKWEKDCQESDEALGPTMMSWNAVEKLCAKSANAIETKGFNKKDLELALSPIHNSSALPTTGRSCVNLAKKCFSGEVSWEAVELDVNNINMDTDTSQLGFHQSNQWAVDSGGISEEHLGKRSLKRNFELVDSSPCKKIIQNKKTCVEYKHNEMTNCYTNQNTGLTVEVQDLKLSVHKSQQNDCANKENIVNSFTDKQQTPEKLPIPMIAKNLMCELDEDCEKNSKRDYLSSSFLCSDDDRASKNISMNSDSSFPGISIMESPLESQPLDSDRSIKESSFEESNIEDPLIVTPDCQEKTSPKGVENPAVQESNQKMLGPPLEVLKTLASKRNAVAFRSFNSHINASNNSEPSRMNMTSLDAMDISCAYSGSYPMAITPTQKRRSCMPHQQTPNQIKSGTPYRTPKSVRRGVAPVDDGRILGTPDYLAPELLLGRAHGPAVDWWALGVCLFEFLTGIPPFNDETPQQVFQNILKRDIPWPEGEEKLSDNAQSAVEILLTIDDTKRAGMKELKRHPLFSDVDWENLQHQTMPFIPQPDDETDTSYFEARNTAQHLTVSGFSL

[13] = molecular target: Ribosomal protein S6 kinase alpha-5 (Homo sapiens) (UniProt O75582); assay: Selectivity interaction (KinomeScan (DiscoverX)) EUB0000229b RPS6KA5; conditions: at 10 µM
[14] = molecular target: T2, Dual specificity mitogen-activated protein kinase kinase 5 (Homo sapiens) (UniProt Q13163); conditions: at 10 µM
T2 sequence (whole entry): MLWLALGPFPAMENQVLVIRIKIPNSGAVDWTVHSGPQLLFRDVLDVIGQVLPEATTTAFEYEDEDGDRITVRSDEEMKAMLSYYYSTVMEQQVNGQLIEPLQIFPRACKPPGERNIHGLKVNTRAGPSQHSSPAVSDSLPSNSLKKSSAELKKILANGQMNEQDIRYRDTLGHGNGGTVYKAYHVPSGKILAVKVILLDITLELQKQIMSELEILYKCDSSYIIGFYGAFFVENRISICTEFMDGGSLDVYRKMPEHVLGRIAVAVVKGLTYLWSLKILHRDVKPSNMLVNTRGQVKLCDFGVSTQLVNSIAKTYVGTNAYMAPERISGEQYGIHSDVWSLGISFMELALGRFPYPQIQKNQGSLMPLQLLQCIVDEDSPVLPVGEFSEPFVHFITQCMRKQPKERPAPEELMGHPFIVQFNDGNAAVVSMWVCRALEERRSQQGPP

[15] = molecular target: T3, Phosphorylase b kinase gamma catalytic chain, liver/testis isoform (Homo sapiens) (UniProt P15735); assay: Selectivity interaction (KinomeScan (DiscoverX)) EUB0000618a PHKG2; conditions: at 10 µM
T3 sequence (whole entry): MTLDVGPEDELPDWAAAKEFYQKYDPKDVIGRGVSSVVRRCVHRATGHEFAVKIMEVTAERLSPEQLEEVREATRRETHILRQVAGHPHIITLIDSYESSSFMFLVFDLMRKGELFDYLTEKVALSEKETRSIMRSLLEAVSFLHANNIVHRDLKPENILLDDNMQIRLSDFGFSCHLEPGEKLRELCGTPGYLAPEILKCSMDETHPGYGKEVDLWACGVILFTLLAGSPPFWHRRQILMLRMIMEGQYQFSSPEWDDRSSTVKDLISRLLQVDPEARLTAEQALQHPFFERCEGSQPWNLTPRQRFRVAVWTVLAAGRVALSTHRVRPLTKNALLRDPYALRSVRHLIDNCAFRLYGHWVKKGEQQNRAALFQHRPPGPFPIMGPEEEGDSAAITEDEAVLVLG

IC50 [1]: 10.2 µM
SMILES: CN1Cc2nccc(-c3cn(C)nc3-c3ccc(F)cc3)c2C1=O

SMILES: CNC(=O)Nc1ccc(-c2nc(N3CC4CCC(C3)O4)c3cnn(C4CCC5(CC4)OCCO5)c3n2)cc1
% of control [2]: 100%
% of inhibition [3]: 2%

% of control [4]: 100%
SMILES: CCN(CC)CCCCNc1ncc2cc(-c3cc(OC)cc(OC)c3)c(NC(=O)NC(C)(C)C)nc2n1

% of inhibition [5]: -1.2%
% of inhibition [6]: 7.47%
SMILES: CC[C@@H]1[C@H](F)C(=O)N[C@@H]1COc1nccc2cc(C(N)=O)c(OC)cc12 [ZIMLOVISERTIB]

SMILES: Cc1cc(F)c(C(=O)Nc2cccc(-c3nncn3C(C)C)n2)cc1-n1cnc(C2CC2)c1
% of control [7]: 78%

% of inhibition [8]: 57%
SMILES: CCc1cc(Nc2nccc(-c3c(-c4ccc(OC)c(C(=O)Nc5c(F)cccc5F)c4)nc4ccccn34)n2)c(OC)cc1N1CCC(N2CCN(S(C)(=O)=O)CC2)CC1

SMILES: COCC(=O)NC/C=C/c1ccc2ncnc(Nc3ccc(Oc4ccc(C)nc4)c(C)c3)c2c1 [CP-724714]
% of control [9]: 100%

SMILES: CN(C)CCOc1ccc(-c2nc(-c3ccncc3)c(-c3ccc4c(c3)CC/C4=N\O)[nH]2)cc1
% of control [10]: 67%

SMILES: Nc1cnc(N2CCc3cc(S(=O)(=O)Nc4c(F)cc(Cl)cc4F)cc(N4CCCC4=O)c32)nc1 [TP-020n]
% of control [11]: 100%

SMILES: C=CC(=O)Nc1ccc(C(=O)Nc2[nH]nc3c2CN(C(=O)N[C@H](CN(C)C)c2ccccc2)C3(C)C)cc1
% of engagement [12]: 5.2%

SMILES: COc1cc(N(C)c2ccnc3ccc(C(F)(F)F)cc23)cc(OC)c1OC
% binding [13]: 87%

SMILES: Cc1cc([C@@H](C)Nc2ccccc2C(=O)O)c2nc(N3CCOCC3)cc(=O)n2c1 [AZD-6482]
% of control [14]: 100%

SMILES: O[C@H]1CC[C@H](Nc2ncc3nc(Nc4c(F)cc(F)cc4F)n([C@H]4CCOC4)c3n2)CC1
% of control [15]: 99%
